In one series the target is T1, CYP1A2 (Homo sapiens, UniProt P05177).
T1 construct: from tissue; host or cells: human liver microsomes
T1 sequence (P05177 1-516): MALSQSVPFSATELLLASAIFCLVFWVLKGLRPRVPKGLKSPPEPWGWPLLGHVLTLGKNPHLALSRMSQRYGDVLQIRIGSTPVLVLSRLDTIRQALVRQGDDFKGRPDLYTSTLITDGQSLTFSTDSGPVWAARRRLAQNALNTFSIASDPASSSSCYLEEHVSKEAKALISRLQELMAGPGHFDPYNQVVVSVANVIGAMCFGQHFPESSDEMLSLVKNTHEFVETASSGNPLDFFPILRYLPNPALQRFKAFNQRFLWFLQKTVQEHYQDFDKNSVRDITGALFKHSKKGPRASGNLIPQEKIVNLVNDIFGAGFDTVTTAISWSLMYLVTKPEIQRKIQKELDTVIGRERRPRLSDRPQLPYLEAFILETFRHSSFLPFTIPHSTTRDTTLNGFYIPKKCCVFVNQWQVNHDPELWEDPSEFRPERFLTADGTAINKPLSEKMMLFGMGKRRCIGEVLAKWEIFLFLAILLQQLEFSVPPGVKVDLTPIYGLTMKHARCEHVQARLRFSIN
Nature of the series: CYP inhibition in HLMs. The format is in vitro ADME. To be noted: HLM 0.5 mg/mL, probe phenacetin, 20 min. The method, then: (§1) CYP inhibition potential of Deg-AZM was assessed in NADPH-fortified HLMs (0.5 mg/mL for CYP1A2, CYP2B6, CYP2C19 and CYP2D6 system, 0.035 mg/mL for CYP2C9 system, 0.05 mg/mL for CYP3A4 system, and 0.025 mg/mL for CYP2C8 system) using CYP probe substrates (same as the positive controls in HLM phenotyping assays). Deg-AZM in triplicates (0, 0.2, 0.6, 2.0, 6.0, 20, and 60 μM) was treated with each probe of CYP1A2 (20 min), CYP2B6 (20 min), CYP2C8 (10 min), CYP2C9 (60 min), CYP2C19 (45 min), CYP2D6 (30 min) and CYP3A4 (15 min). Probe substrate metabolites were analyzed by LC-MS/MS and the peak area ratios of analytes to internal standard (Indapamide) were calculated. The activity of the CYP450 enzyme subtype is directly proportional to the concentration of the corresponding probe substrate metabolites. The average of the measured values of each group was calculated, the control tube value was set as 100%, the residual probe substrate metabolites was calculated in the presence of positive inhibitors and Deg-AZM at series concentration. IC50 values were calculated by the dose-response model (nonlinear regression) in GraphPad Prism software.

The target in a further series is T2, CYP2B6 (Homo sapiens, UniProt P20813).
T2 construct: from tissue; host or cells: human liver microsomes
T2 sequence (P20813 1-491): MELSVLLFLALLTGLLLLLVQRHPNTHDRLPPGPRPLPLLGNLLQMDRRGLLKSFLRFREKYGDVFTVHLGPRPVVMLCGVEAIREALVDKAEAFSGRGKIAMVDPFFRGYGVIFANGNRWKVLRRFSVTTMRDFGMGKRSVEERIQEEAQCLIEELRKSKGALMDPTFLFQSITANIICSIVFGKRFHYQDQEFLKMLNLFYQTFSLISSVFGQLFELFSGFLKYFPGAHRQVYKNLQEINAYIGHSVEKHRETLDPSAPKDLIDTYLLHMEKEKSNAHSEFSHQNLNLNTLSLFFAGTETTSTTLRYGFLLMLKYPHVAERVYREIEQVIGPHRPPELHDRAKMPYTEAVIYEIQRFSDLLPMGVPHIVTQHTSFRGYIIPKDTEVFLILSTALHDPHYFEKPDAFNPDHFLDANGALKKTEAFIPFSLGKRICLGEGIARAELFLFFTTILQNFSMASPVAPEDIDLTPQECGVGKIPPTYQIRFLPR
Put plainly: CYP inhibition in HLMs. The format is in vitro ADME. The following applies: HLM 0.5 mg/mL, probe bupropion, 20 min. The method, then:
as §1

A further series addresses T3, CYP2C19 (Homo sapiens, UniProt P33261).
T3 construct: from tissue; host or cells: human liver microsomes
Put plainly: CYP inhibition in HLMs. The following applies: HLM 0.5 mg/mL, probe S-mephenytoin, 45 min. The format is in vitro ADME. How it is done: as §1

A further series concerns the target T4, CYP2C8 (Homo sapiens, UniProt P10632).
T4 construct: from tissue; host or cells: human liver microsomes
T4 sequence (P10632 1-490): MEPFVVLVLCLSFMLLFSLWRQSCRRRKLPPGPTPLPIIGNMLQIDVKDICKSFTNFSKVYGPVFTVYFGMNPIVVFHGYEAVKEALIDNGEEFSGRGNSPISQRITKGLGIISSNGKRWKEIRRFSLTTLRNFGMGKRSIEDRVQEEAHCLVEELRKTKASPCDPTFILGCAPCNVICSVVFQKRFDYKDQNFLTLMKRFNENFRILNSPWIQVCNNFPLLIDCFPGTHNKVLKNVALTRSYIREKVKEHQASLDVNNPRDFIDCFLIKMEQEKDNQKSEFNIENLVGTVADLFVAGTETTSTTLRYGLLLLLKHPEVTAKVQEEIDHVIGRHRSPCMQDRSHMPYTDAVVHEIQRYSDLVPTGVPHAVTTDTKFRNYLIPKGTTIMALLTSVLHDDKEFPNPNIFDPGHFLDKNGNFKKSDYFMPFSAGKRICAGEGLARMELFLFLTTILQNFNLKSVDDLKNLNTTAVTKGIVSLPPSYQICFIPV
Nature of the series: CYP inhibition in HLMs. The format is in vitro ADME. The following applies: HLM 0.025 mg/mL, probe amodiaquine, 10 min. How it is done: as §1

In a further series the target is T5, CYP2C9 (Homo sapiens, UniProt P11712).
T5 construct: from tissue; host or cells: human liver microsomes
Put plainly: CYP inhibition in HLMs. The format is in vitro ADME. To be noted: HLM 0.035 mg/mL, probe diclofenac, 60 min. The method, then:
as §1

A further series concerns the target T6, CYP2D6 (Homo sapiens, UniProt P10635).
T6 construct: from tissue; host or cells: human liver microsomes
Nature of the series: CYP inhibition in HLMs. The format is in vitro ADME. The following applies: HLM 0.5 mg/mL, probe bufuralol, 30 min. How it is done: as §1

The target in the next series is T7, CYP3A4 (Homo sapiens, UniProt P08684).
T7 construct: from tissue; host or cells: human liver microsomes
Nature of the series: CYP inhibition in HLMs. The format is in vitro ADME. The following applies: HLM 0.05 mg/mL, probe midazolam, 15 min. How it is done: as §1

The test system of another series is human liver microsomes. Details: method as in Gu et al., 2024. The following applies: ref Gu et al., 2024; cited from earlier work.

T3 sequence (P33261 whole entry): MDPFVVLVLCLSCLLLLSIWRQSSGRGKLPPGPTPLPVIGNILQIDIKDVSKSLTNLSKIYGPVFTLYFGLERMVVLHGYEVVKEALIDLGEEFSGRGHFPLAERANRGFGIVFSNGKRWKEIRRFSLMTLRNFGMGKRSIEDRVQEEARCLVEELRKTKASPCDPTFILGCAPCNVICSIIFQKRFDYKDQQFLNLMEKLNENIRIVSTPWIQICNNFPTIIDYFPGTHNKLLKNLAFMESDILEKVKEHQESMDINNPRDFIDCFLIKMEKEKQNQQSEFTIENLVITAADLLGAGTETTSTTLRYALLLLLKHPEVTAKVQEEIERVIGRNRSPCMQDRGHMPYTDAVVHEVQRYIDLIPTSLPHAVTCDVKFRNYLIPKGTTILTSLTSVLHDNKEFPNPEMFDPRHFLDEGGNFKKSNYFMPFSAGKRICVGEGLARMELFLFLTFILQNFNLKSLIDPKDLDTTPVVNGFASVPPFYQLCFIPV
T6 sequence (P10635 whole entry): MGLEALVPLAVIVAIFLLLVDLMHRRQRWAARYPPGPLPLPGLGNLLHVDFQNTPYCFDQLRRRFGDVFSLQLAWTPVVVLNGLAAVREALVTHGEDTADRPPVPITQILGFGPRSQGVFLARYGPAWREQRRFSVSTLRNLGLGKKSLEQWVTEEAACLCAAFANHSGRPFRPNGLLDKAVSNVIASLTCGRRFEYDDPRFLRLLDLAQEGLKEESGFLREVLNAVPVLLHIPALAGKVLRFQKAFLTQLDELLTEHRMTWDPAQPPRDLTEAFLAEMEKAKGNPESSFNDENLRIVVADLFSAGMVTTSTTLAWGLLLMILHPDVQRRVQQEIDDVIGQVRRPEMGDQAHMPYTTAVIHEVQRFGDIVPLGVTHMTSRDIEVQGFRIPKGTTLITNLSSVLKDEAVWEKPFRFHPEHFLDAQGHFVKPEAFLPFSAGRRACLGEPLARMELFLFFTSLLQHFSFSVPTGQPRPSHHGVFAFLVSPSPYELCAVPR
T7 sequence (P08684 whole entry): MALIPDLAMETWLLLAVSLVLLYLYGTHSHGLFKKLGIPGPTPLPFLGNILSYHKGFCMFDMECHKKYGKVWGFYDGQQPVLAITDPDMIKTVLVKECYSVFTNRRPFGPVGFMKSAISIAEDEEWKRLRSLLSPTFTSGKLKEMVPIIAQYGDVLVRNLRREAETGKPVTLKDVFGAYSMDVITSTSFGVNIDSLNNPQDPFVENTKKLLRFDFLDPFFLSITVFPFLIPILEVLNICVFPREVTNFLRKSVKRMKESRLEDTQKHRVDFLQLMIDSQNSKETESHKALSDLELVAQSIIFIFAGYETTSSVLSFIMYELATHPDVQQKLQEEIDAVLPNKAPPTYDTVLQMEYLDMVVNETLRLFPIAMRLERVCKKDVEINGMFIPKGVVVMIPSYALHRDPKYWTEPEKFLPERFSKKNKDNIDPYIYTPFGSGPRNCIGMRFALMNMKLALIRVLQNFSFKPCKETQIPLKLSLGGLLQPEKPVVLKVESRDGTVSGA
T5 sequence (P11712 whole entry): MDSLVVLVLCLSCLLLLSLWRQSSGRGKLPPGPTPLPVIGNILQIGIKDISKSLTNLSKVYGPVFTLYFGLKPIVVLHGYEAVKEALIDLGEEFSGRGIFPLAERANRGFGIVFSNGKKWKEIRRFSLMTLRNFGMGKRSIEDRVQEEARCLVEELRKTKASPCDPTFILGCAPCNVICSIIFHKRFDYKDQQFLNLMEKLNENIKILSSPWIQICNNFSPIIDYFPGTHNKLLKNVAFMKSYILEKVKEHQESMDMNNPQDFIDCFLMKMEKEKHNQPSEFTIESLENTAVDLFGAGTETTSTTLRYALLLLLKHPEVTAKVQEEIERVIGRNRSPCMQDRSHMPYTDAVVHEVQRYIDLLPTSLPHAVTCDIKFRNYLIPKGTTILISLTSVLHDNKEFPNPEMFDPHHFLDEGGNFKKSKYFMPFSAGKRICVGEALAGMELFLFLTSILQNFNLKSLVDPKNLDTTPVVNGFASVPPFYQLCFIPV

Take `CCC1OC(=O)C(C)C(O)C(C)C(O)C(C)(O)CC(C)CN(C)C(C)C(O)C1(C)O` (centres unmarked) [Deg-AZM, Deglycosylated azithromycin]: the IC50 against CYP1A2 is greater than 60 µM; on CYP2B6 it was 8.97 µM; against CYP2C19 it was greater than 60 µM; at CYP2C8, greater than 60 µM; against CYP2C9 it was greater than 60 µM; against CYP2D6, 7.89 µM. This compound registered a concentration for half-maximal inhibition (IC50) at CYP3A4 greater than 60 µM. Also, the T1/2 in the series with human liver microsomes is recorded as 46.5 min.
